Laboratory results taken from US10450258B2, “Substituted aromatic compounds for the treatment of pulmonary fibrosis, liver fibrosis, skin fibrosis and cardiac fibrosis” (PROMETIC PHARMA SMT LIMITED, priority 2013, dated 2019).
“Also recorded” adds a separate entry of the source.

Columns and labels:
α-SMA mRNA in NHDF cells = assay: Inhibition of α-SMA mRNA in TGF-β-activated NHDF fibroblasts; assay type: cell-based; details: Homo sapiens, compound 0.5 mM
Method: CTGF, collagen 1 and α-SMA are fibrotic markers produced by activated fibroblasts and by epithelial cells that undergo to epithelial-mesenchymal transition (EMT).
Table 2: Percentage of inhibition of collagen in epithelial cells (HK2 cells) and fibroblasts (NHDF) and percentage of inhibition of α-SMA in fibroblasts (NRK-49F and NHDF) has been determined for several compounds according the invention. In all cases, the mRNA of collagen and α-SMA has been measured, and the inhibition was evaluated in presence of a respective concentration of the tested compound. The compounds have been tested at different concentrations [mM]. All compounds reduce the expression of collagen and α-SMA in HK-2, NHDF and NRK-49F cells.

[1] = system: heart fibrosis in 5/6 nephrectomized-catheterized rats; assay: Heart fibrosis in 5/6 nephrectomized-catheterized (5/6-Nx) rats; assay type: in vivo, rat (male Sprague-Dawley); details: for hydroxyproline (collagen) content in heart: FIG. 31
Description: Implantation of a femoral catheter increases the presence of heart fibrosis in our 5/6 nephrectomized (5/6-Nx) model and it was used to assess the effect of Compound I on heart fibrosis. In summary, male 6-week old Sprague-Dawley rats were subjected to 5/6-Nx or sham operations. Briefly, two-thirds of the left kidney was removed on day 0 followed by the right total nephrectomy on day 7. A catheter was implanted via the femoral vein on day 7. Sham operated rats underwent exposition of the kidneys and removal of the perirenal fat and were used as controls. Animals that underwent the sham operation were treated with vehicle (water) and were used as controls. On day 21, rats were randomized based on their glomerular filtration rate (GFR) results. 5/6-Nx animals were treated with three times a week intravenous administration of Compound I (10 mg/kg), or with daily oral administration with Compound I (200 mg/kg). Heart fibrosis was determined by the measurement of hydroxyproline (collagen content) and by histological evaluation (HPE and Masson's trichrome staining). As mentioned, implantation of catheter for intravenous administration of compounds in catheterized 5/6 nephrectomized animals is inducing heart fibrosis compare to oral treatment (no catheter). Oral treatment is identified herein with the expression “po” that means “per os”; intravenous administration is identified with the expression “iv” for “intravenous”. As exemplified in FIG. 27, 5/6-Nx rats have weak heart lesions. However, implantation of a catheter induced a significant increase (4 times) of heart lesions (fibrosis, necrosis and inflammation).

[2] = system: bleomycin-induced pulmonary fibrosis mouse model; assay: Bleomycin-induced pulmonary fibrosis mouse model: body weight and lung histology; assay type: in vivo, mouse (male C57BL6)
Method: Intratracheal instillation of the anticancer drug bleomycin into the mouse results in acute inflammation followed by a chronic fibrotic response. Therefore, evaluation of candidate antifibrotic drugs such as Compound I can be undertaken by treatment of the mice at appropriate time points and histologic, biochemical and cellular readouts may be used to monitor candidate drug efficacy in this model.
Male C57BL6 mice are administered intratracheal instillation of bleomycin sulphate (0.025 U) at day 0, randomized and administered Compound I (oral administration, 100 mg/kg and 200 mg/kg) on day 7 to day 20.
Lesions score was evaluated using HEP (Hemalun with Eosin/Ploxine) and Masson's trichrome staining. Lesions score was recorded as 1) Consolidation as shown by disrupted lung architecture (cellular and/or fibrosis) and 2) Alveolar wall as shown by thickness and shrinking outside of consolidated area.
It was therefore evaluated side-by-side with Compound I in the bleomycin-induced pulmonary fibrosis mouse model by the same protocol described in Example 4 above. Compound I (200 mg/kg) and pirfenidone (400 mg/kg) were orally administered either alone or in combination.
Lesions score was evaluated using HEP (Hemalun with Eosin/Ploxine) and Masson's trichrome staining and recorded as 1) Consolidation as shown by disrupted lung architecture (cellular and/or fibrosis), and 2) Alveolar wall as shown by thickness and shrinking outside of consolidated area.
The lesions score as determined by the percentage of leukocyte infiltration (inflammatory zone) multiplied by the percentage of collagen found in the leukocyte infiltrate was quantified by histomorphometry using Masson's trichrome staining.
Visual grading of pulmonary fibrosis was also determined according to Ashcroft's score. Briefly, the entire fields of each lung section were read by a blinded examiner, and each field was visually graded from 0 to 8. Criteria for grading lung fibrosis were as follows: Grade 0=normal lung; Grade 1=minimal fibrous thickening of alveolar or bronchiolar walls; Grade 3=moderate thickening of walls without obvious damage to lung architecture; Grade 5=increased fibrosis with definitive damage to lung structure and formation of fibrous bands or small fibrous masses; Grade 7=severe distortion of structure and large fibrous area; Grade 8=total fibrous obliteration of lung fields.

[3] = system: normal human dermal fibroblasts (NHDF); assay: TGF-β-induced and basal CTGF, collagen 1 and α-SMA transcript expression in NHDF (quantitative real-time PCR); assay type: cell-based
Method: The effect of Compound of the invention on skin fibrosis was studied using normal human dermal fibroblasts (NHDF).
In vitro analysis was undertaken to determine the effect of Compound I on TGF-β-induced CTGF, collagen 1 and α-SMA (markers of fibrosis) on normal human dermal fibroblasts (NHDF). Expression of the profibrotic (CTGF) and fibrotic markers (collagen 1 and α-SMA) were determined by quantitative real-time PCR.
Myofibroblasts are terminally differentiated cells derived from fibroblasts, epithelial and mesenchymal stem/stromal (fibrocytes) cells that play an important role in tissue fibrosis via increased matrix synthesis such as collagen. α-SMA is a well-known marker of myofibroblast.

[4] = system: normal human dermal fibroblasts (NHDF); assay: Scratch assay (migration and invasion) of EGF-stimulated NHDF; assay type: cell-based; details: mitomycin-treated NHDF, compound 0.5 mM, FIG. 26
Method: The next experiments (scratch assay, invasion/migration) were designed to determine the effect of Compound I on EGF-stimulated normal human dermal fibroblasts (NHDF). In summary, mitomycin-treated NHDF were stimulated with EGF and incubated in the presence or absence (control) of Compound I (0.5 mM). EGF stimulated fibroblast invasion into the scratch which is inhibited by Compound I (FIG. 26).

CCCCCc1cccc(CC(=O)[O-])c1.[Na+] [Compound I, Sodium Salt of 3-pentylphenylacetic acid]
inhibition at 500 µM (α-SMA mRNA in NHDF cells): 99% | inflammation level in heart ([1]; intravenous 10 mg/kg three times a week, FIG. 29): significant reduction of inflammation | necrosis level in heart ([1]; intravenous 10 mg/kg three times a week, FIG. 30): significant reduction of necrosis | hydroxyproline (collagen) content in heart ([1]; intravenous 10 mg/kg three times a week): significant reduction | total heart lesions (histological evaluation) ([1]; intravenous 10 mg/kg three times a week, p<0.05, FIG. 28): reduces significantly | heart fibrosis (blue-colored collagen deposition, Masson's trichrome photomicrographs) ([1]; intravenous, FIG. 34): reduces fibrosis | hydroxyproline (collagen) content in heart ([1]; oral 200 mg/kg daily): significant reduction | heart fibrosis (blue-colored collagen deposition, Masson's trichrome photomicrographs) ([1]; oral, FIGS. 32 and 33): reduces fibrosis | body weight loss ([2]; oral 200 mg/kg, day 7 to day 20, FIG. 1): reduced this body weight loss | recovery of the body weight loss ([2]; oral 100 and 200 mg/kg vs vehicle (Bleo), FIG. 1 legend): recovery of the body weight loss | histological lesions score of lungs (HEP and Masson's trichrome) ([2]; oral 100 and 200 mg/kg, day 7 to day 20, FIG. 2): significant reduction of lesions; also recorded: reduced histological lesions in a dose-dependent manner | lesions and fibrosis in lungs (photomicrographs) ([2]; oral 100 and 200 mg/kg, FIG. 3): reduced lesions and fibrosis in lungs | lesions score: percentage of leukocyte infiltration multiplied by percentage of collagen in the leukocyte infiltrate (histomorphometry, Masson's trichrome) ([2]; oral Compound I 200 mg/kg, FIG. 9): significantly reduced | percentage of lungs affected by bleomycin ([2]; oral, Compound I 200 mg/kg, pirfenidone 400 mg/kg, alone or combined, FIG. 7): lower | histological lesion score of lungs (HEP and Masson's trichrome) ([2]; oral, Compound I 200 mg/kg, pirfenidone 400 mg/kg, alone or combined, FIG. 8): significantly reduced histological lesions | visual grading of pulmonary fibrosis (Ashcroft's score) ([2]; oral, Compound I 200 mg/kg, pirfenidone 400 mg/kg, alone or combined, FIG. 11): reduced | lesions and fibrosis in lungs (photomicrographs stained with HEP) ([2]; oral, Compound I 200 mg/kg, pirfenidone 400 mg/kg, FIG. 10): reduced lesions and fibrosis in lungs | TGF-β-induced CTGF transcript expression ([3]; TGF-β 5 ng/ml, compound 500 μM, FIG. 23): inhibited | TGF-β-induced collagen 1 transcript expression ([3]; TGF-β 5 ng/ml, compound 500 μM, FIG. 24): inhibited | TGF-β-induced α-SMA transcript expression ([3]; TGF-β 5 ng/ml, compound 500 μM, FIG. 25): inhibited | inhibition of α-SMA in TGF-β induced fibroblasts ([3]; TGF-β induced): 90% | basal expression of CTGF ([3]; compound alone (0.5 mM), no TGF-β, FIG. 23): decreased basal expression | basal expression of collagen 1 ([3]; compound alone (0.5 mM), no TGF-β, FIG. 24): decreased basal expression | basal expression of α-SMA ([3]; compound alone (0.5 mM), no TGF-β, FIG. 25): decreased basal expression | EGF-stimulated fibroblast migration and invasion into the scratch [4]: reduction of the migration and invasion; also recorded: inhibited
